Experimental data taken from ChEMBL document CHEMBL1201862, “PubChem BioAssay data set” (2004).
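Results reflect a 48-hour exposure of cells in 96-well plates to compound at five concentrations. Here, GI50 denotes the concentration required for 50% inhibition of growth.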 The source made the active and inactive calls. Cut-off read from the data, not from the text of the source: active = GI50 up to about 1.1 µM and inactive = higher.

How the values were obtained:
Test in all cases: DTP human tumour cell line panel, 48 h
TK-10 = tested on: TK-10
SR = tested on: SR
Hs-578T = tested on: Hs-578T
HL-60 = tested on: HL-60
A549 = tested on: A549
HOP-62 = tested on: HOP-62
CCRF-CEM = tested on: CCRF-CEM
SNB-75 = tested on: SNB-75
PC-3 = tested on: PC-3
SK-MEL-28 = tested on: SK-MEL-28
LOX IMVI = tested on: LOX IMVI
OVCAR-5 = tested on: OVCAR-5
NCI-H23 = tested on: NCI-H23
K562 = tested on: K562
OVCAR-4 = tested on: OVCAR-4
OVCAR-8 = tested on: OVCAR-8
SK-MEL-5 = tested on: SK-MEL-5
BT-549 = tested on: BT-549
UACC-257 = tested on: UACC-257
SNB-19 = tested on: SNB-19
COLO 205 = tested on: COLO 205
HOP-92 = tested on: HOP-92
EKVX = tested on: EKVX
RPMI-8226 = tested on: RPMI-8226
RXF 393 = tested on: RXF 393
HCT-15 = tested on: HCT-15
MDA-N = tested on: MDA-N
U-251 = tested on: U-251
SF-539 = tested on: SF-539
SF-295 = tested on: SF-295
NCI-H226 = tested on: NCI-H226
HT-29 = tested on: HT-29
SK-OV-3 = tested on: SK-OV-3
CAKI-1 = tested on: CAKI-1
T47D = tested on: T47D
DU-145 = tested on: DU-145
MCF7 = tested on: MCF7
MOLT-4 = tested on: MOLT-4
SK-MEL-2 = tested on: SK-MEL-2
NCI-H460 = tested on: NCI-H460
UO-31 = tested on: UO-31
A498 = tested on: A498
ACHN = tested on: ACHN
MDA-MB-231 = tested on: MDA-MB-231
OVCAR-3 = tested on: OVCAR-3
SN12C = tested on: SN12C
NCI-H522 = tested on: NCI-H522
KM12 = tested on: KM12
M14 = tested on: M14
IGROV-1 = tested on: IGROV-1
786-0 = tested on: 786-0
HCT-116 = tested on: HCT-116
MDA-MB-435 = tested on: MDA-MB-435
SF-268 = tested on: SF-268
NCI/ADR-RES = tested on: NCI/ADR-RES
SW-620 = tested on: SW-620
Malme-3M = tested on: Malme-3M
UACC-62 = tested on: UACC-62
HCC 2998 = tested on: HCC 2998

CC(N/N=N/c1ccc(-c2nc3ccccc3[nH]2)cc1)C(=O)O (stereo not drawn)
GI50 (TK-10): 81.7 µM (inactive) | GI50 (SR): 2.4 µM (inactive) | GI50 (Hs-578T): 33.7 µM (inactive) | GI50 (HL-60): 32.6 µM (inactive) | GI50 (A549): 33 µM (inactive) | GI50 (HOP-62): 45.2 µM (inactive) | GI50 (CCRF-CEM): 3.18 µM (inactive) | GI50 (SNB-75): > 100 µM (inactive) | GI50 (PC-3): 25.6 µM (inactive) | GI50 (SK-MEL-28): > 100 µM (inactive) | GI50 (LOX IMVI): 28.2 µM (inactive) | GI50 (OVCAR-5): > 100 µM (inactive) | GI50 (NCI-H23): 62.2 µM (inactive) | GI50 (K562): 7.16 µM (inactive) | GI50 (OVCAR-4): 37.6 µM (inactive) | GI50 (OVCAR-8): 22.2 µM (inactive) | GI50 (SK-MEL-5): 18.8 µM (inactive) | GI50 (BT-549): 3.73 µM (inactive) | GI50 (UACC-257): > 100 µM (inactive) | GI50 (SNB-19): > 100 µM (inactive) | GI50 (COLO 205): 25.9 µM (inactive) | GI50 (HOP-92): > 100 µM (inactive) | GI50 (EKVX): 31.8 µM (inactive) | GI50 (RPMI-8226): 1.91 µM (inactive) | GI50 (RXF 393): 34.1 µM (inactive) | GI50 (HCT-15): 9.57 µM | GI50 (MDA-N): 27.5 µM (inactive) | GI50 (U-251): 18.1 µM (inactive) | GI50 (SF-539): 55 µM (inactive) | GI50 (SF-295): 19.6 µM (inactive) | GI50 (NCI-H226): > 100 µM (inactive) | GI50 (HT-29): 29.5 µM (inactive) | GI50 (SK-OV-3): > 100 µM (inactive) | GI50 (CAKI-1): 42.7 µM (inactive) | GI50 (T47D): 16.3 µM (inactive) | GI50 (DU-145): 49.4 µM (inactive) | GI50 (MCF7): 4.21 µM (inactive) | GI50 (MOLT-4): 5.01 µM (inactive) | GI50 (SK-MEL-2): 59.3 µM (inactive) | GI50 (NCI-H460): 17.5 µM (inactive) | GI50 (UO-31): 39.1 µM (inactive) | GI50 (A498): > 100 µM (inactive) | GI50 (ACHN): 40.3 µM (inactive) | GI50 (MDA-MB-231): 33.7 µM (inactive) | GI50 (OVCAR-3): 18.6 µM (inactive) | GI50 (SN12C): 36.3 µM (inactive) | GI50 (NCI-H522): 23.3 µM (inactive) | GI50 (KM12): 19.2 µM (inactive) | GI50 (M14): 35.1 µM (inactive) | GI50 (IGROV-1): 12.9 µM (inactive) | GI50 (786-0): 15.7 µM (inactive) | GI50 (HCT-116): 28.9 µM (inactive) | GI50 (MDA-MB-435): 32.7 µM (inactive) | GI50 (SF-268): 32.7 µM (inactive) | GI50 (NCI/ADR-RES): 7.94 µM (inactive) | GI50 (SW-620): 29.8 µM (inactive) | GI50 (Malme-3M): 26.3 µM (inactive)

CCOC(=O)CSc1nc2ccccc2c(=O)n1N
GI50 (TK-10): 83.2 µM (inactive) | GI50 (SR): > 100 µM (inactive) | GI50 (Hs-578T): > 100 µM (inactive) | GI50 (A549): 83 µM (inactive) | GI50 (SNB-75): > 100 µM (inactive) | GI50 (PC-3): > 100 µM (inactive) | GI50 (SK-MEL-28): > 100 µM (inactive) | GI50 (LOX IMVI): > 100 µM (inactive) | GI50 (OVCAR-5): > 100 µM (inactive) | GI50 (NCI-H23): > 100 µM (inactive) | GI50 (K562): > 100 µM (inactive) | GI50 (OVCAR-4): > 100 µM (inactive) | GI50 (OVCAR-8): 32.8 µM (inactive) | GI50 (SK-MEL-5): > 100 µM (inactive) | GI50 (BT-549): > 100 µM (inactive) | GI50 (UACC-257): > 100 µM (inactive) | GI50 (SNB-19): > 100 µM (inactive) | GI50 (COLO 205): > 100 µM (inactive) | GI50 (HOP-92): > 100 µM (inactive) | GI50 (EKVX): > 100 µM (inactive) | GI50 (RPMI-8226): > 100 µM (inactive) | GI50 (RXF 393): > 100 µM (inactive) | GI50 (HCT-15): > 100 µM | GI50 (UACC-62): > 100 µM (inactive) | GI50 (MDA-N): > 100 µM (inactive) | GI50 (U-251): > 100 µM (inactive) | GI50 (SF-539): > 100 µM (inactive) | GI50 (SF-295): > 100 µM (inactive) | GI50 (NCI-H226): > 100 µM (inactive) | GI50 (HT-29): 68.4 µM (inactive) | GI50 (CAKI-1): > 100 µM (inactive) | GI50 (T47D): > 100 µM (inactive) | GI50 (DU-145): 40.9 µM (inactive) | GI50 (MCF7): > 100 µM (inactive) | GI50 (MOLT-4): > 100 µM (inactive) | GI50 (SK-MEL-2): > 100 µM (inactive) | GI50 (NCI-H460): 83.4 µM (inactive) | GI50 (UO-31): > 100 µM (inactive) | GI50 (A498): > 100 µM (inactive) | GI50 (ACHN): > 100 µM (inactive) | GI50 (MDA-MB-231): > 100 µM (inactive) | GI50 (OVCAR-3): > 100 µM (inactive) | GI50 (SN12C): 63.1 µM (inactive) | GI50 (HCC 2998): 37.6 µM (inactive) | GI50 (NCI-H522): > 100 µM (inactive) | GI50 (KM12): > 100 µM (inactive) | GI50 (M14): > 100 µM (inactive) | GI50 (IGROV-1): > 100 µM (inactive) | GI50 (786-0): > 100 µM (inactive) | GI50 (HCT-116): > 100 µM (inactive) | GI50 (MDA-MB-435): > 100 µM (inactive) | GI50 (SF-268): > 100 µM (inactive) | GI50 (NCI/ADR-RES): > 100 µM (inactive) | GI50 (SW-620): > 100 µM (inactive) | GI50 (Malme-3M): > 100 µM (inactive)

CC1=C(C(N)=O)C(c2ccncc2)C(C#N)=C2SCC(=O)N12 (stereo not drawn)
GI50 (SR): > 100 µM (inactive) | GI50 (Hs-578T): > 100 µM (inactive) | GI50 (HL-60): > 100 µM (inactive) | GI50 (A549): > 100 µM (inactive) | GI50 (HOP-62): > 100 µM (inactive) | GI50 (CCRF-CEM): > 100 µM (inactive) | GI50 (SNB-75): > 100 µM (inactive) | GI50 (PC-3): > 100 µM (inactive) | GI50 (SK-MEL-28): > 100 µM (inactive) | GI50 (OVCAR-5): > 100 µM (inactive) | GI50 (NCI-H23): > 100 µM (inactive) | GI50 (K562): > 100 µM (inactive) | GI50 (OVCAR-4): > 100 µM (inactive) | GI50 (OVCAR-8): > 100 µM (inactive) | GI50 (SK-MEL-5): > 100 µM (inactive) | GI50 (BT-549): > 100 µM (inactive) | GI50 (UACC-257): > 100 µM (inactive) | GI50 (SNB-19): > 100 µM (inactive) | GI50 (COLO 205): > 100 µM (inactive) | GI50 (HOP-92): > 100 µM (inactive) | GI50 (EKVX): > 100 µM (inactive) | GI50 (RPMI-8226): > 100 µM (inactive) | GI50 (RXF 393): > 100 µM (inactive) | GI50 (HCT-15): > 100 µM | GI50 (UACC-62): > 100 µM (inactive) | GI50 (MDA-N): > 100 µM (inactive) | GI50 (U-251): > 100 µM (inactive) | GI50 (SF-539): > 100 µM (inactive) | GI50 (SF-295): > 100 µM (inactive) | GI50 (NCI-H226): > 100 µM (inactive) | GI50 (HT-29): > 100 µM (inactive) | GI50 (SK-OV-3): > 100 µM (inactive) | GI50 (CAKI-1): > 100 µM (inactive) | GI50 (T47D): > 100 µM (inactive) | GI50 (DU-145): > 100 µM (inactive) | GI50 (MCF7): > 100 µM (inactive) | GI50 (MOLT-4): > 100 µM (inactive) | GI50 (SK-MEL-2): > 100 µM (inactive) | GI50 (NCI-H460): > 100 µM (inactive) | GI50 (UO-31): > 100 µM (inactive) | GI50 (A498): > 100 µM (inactive) | GI50 (ACHN): > 100 µM (inactive) | GI50 (MDA-MB-231): > 100 µM (inactive) | GI50 (OVCAR-3): > 100 µM (inactive) | GI50 (SN12C): > 100 µM (inactive) | GI50 (NCI-H522): > 100 µM (inactive) | GI50 (KM12): > 100 µM (inactive) | GI50 (M14): > 100 µM (inactive) | GI50 (IGROV-1): > 100 µM (inactive) | GI50 (786-0): > 100 µM (inactive) | GI50 (HCT-116): > 100 µM (inactive) | GI50 (MDA-MB-435): > 100 µM (inactive) | GI50 (SF-268): > 100 µM (inactive) | GI50 (NCI/ADR-RES): > 100 µM (inactive) | GI50 (SW-620): > 100 µM (inactive) | GI50 (Malme-3M): > 100 µM (inactive)
